In publication PMC10971055 (International Journal of Molecular Sciences, 2024):
Like-named read-outs stand apart in the source and are kept apart here.

Tests used:
[1] = Solubility in different solvents; format: physicochemical; settings: qualitative
COX-1 = experiment: Western blotting of COX-1
human recombinant COX-2 = target: T1, human recombinant COX-2 (Homo sapiens, UniProt P35354); experiment: COX-2 inhibition, ELISA kit; format: biochemical
T1 construct: purchased Cayman Chemical Item No. 560131
T1 sequence (P35354 18-604): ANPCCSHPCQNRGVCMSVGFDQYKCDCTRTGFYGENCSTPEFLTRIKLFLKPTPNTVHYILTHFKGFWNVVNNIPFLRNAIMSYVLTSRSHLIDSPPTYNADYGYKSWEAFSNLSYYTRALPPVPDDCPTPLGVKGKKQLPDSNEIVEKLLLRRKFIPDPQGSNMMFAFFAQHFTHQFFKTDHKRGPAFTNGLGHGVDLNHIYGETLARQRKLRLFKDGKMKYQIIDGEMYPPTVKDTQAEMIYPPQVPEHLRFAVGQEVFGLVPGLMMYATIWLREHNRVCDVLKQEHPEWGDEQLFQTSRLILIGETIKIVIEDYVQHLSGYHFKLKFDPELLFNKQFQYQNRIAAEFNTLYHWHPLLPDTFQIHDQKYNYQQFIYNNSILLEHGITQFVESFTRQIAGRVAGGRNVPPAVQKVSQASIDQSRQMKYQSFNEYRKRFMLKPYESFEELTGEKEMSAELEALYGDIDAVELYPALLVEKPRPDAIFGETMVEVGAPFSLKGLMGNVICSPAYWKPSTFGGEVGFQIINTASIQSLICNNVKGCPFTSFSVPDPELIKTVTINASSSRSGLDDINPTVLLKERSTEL
Procedure: (§1) The compounds’ abilities were evaluated in vitro to inhibit ovine COX-1 and human recombinant COX-2 isozymes using ELISA [46].

fibroblast cells = experiment: MTT test, cytotoxicity; format: cell-based; settings: 24 h, read-out: IC50 against fibroblast cells
Procedure: The cytotoxicity of the IA was investigated during 24 h at various concentrations against fibroblast cell lines using the MTT test. […].
The MTT Reagent was purchased from Biospes (Biospes, China, Cat n#BAR1005-1), and used according to the manufacturer’s instructions. Twenty-four hours prior to the MTT experiment, breast cancer cell lines (MCF-7 Cell Line) were seeded at a concentration of 5 × 10^4 cells per well in 96-well microplates to facilitate microplate adherence. Various agent concentrations were administered to the cultured cells. The cells were treated with 10 μL of MTT solution, and 100 μL of serum-free medium was added to every well. The plate was kept at 37 °C for 4 h in a CO2 incubator. Then, each well received 100 μL of formazan diluent buffer. The plate was incubated at 37 °C for the entire night after being wrapped in foil and given a 15-min orbital shake. An ELISA plate reader (Stat Fax 2200, Awareness Technologies, Palm City, FL, USA) was used to measure color absorbance in the OD range of 450–630 nm.
For every sample, the mean of the three readings was computed. Cell survival was calculated at the very end using the following equation:(1) % of cell viability= Asample/Acontrol×100
Acontrol is the absorbance of the cell culture after treatment with formazan buffer and MTT without added any drug. […]

ovine COX-1 = target: T2, ovine COX-1 (Ovis aries, UniProt P05979); experiment: COX-1 inhibition, ELISA kit; format: biochemical; settings: average of three determinations
T2 construct: purchased Cayman Chemical Item No. 560131
T2 sequence (P05979 25-600): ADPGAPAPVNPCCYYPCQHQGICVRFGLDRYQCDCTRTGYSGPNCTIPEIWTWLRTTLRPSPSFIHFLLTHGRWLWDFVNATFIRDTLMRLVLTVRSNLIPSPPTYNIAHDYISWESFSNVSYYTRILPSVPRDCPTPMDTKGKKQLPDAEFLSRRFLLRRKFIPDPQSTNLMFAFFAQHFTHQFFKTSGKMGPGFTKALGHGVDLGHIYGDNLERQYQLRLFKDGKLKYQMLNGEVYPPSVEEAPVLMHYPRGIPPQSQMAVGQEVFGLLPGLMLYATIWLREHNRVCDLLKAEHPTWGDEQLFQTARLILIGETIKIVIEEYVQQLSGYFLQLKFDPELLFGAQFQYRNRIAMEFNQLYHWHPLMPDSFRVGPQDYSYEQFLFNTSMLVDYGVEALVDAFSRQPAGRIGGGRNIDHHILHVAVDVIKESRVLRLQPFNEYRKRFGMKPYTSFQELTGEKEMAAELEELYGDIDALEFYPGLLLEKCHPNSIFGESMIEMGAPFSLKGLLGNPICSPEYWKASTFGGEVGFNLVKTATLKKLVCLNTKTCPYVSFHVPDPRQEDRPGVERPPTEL
Procedure: as §1

| SMILES | Solubility in solvents [1] | IC50 (COX-1) [µM] | COX-2 S.I. (human recombinant COX-2; Selectivity index (COX-1 IC50/COX-2 IC50)) | IC50 (human recombinant COX-2; average of three determinations) [µM] | melting point [°C] | IC50 (fibroblast cells; MTT test) [µM] | IC50 (ovine COX-1) [µM] | IC50 (fibroblast cells) [µM] |
| --- | --- | --- | --- | --- | --- | --- | --- | --- |
| CC(=O)CC(C)=NNC(=O)C(C)c1ccc(CC(C)C)cc1 (stereo not drawn) [IA, (E)-2-(4-isobutylphenyl)-N′-(4-oxopentan-2-ylidene) propane hydrazide] | soluble in alcohols, DMSO, and DMF | 0.946 | 2.8 | 3.6 | 135 | 3.43 | 10.2 |  |
| CC(C)Cc1ccc(C(C)C(=O)O)cc1 (stereo not drawn) [Ibuprofen, reference compound] |  | […] |  |  |  |  |  | 31.4 |
